From patent publication US4845130A, “Antihyperlipidemic amines” (United States Borax & Chemical Corporation, priority 1988, dated 1989)
Read-outs that look alike come from different tables or passages of the source.

Columns and labels:
serum triglyceride = assay: Serum triglyceride (Fisher-Hycel Triglyceride Test Kit) in mice; assay type: in vivo, male CF1 mice; conditions: Mus musculus, 384 h, Day 16; for response vs control in vivo at 20 mg/kg: 20 mg./kg./day intraparenterally; for response vs control in vivo at 8 mg/kg: 8 mg./kg/day, procedure of Example 1
Procedure: (§1) For determining hypolipidemic activity, representative compounds of this invention were suspended in an aqueous 1% carboxymethylcellulose solution and tested at 20 mg./kg./ day administered intraparenterally to male CF1 mice (~25 g.). Six animals were used for each test. On days 9 and 16, blood was collected by tail vein bleeding and the serum separated by centrifugation for three minutes. Serum cholesterol levels were determined by a modified Liebermann-Burchard reaction. Serum triglyceride levels were also determined at 16 days using a Fisher-Hycel Triglyceride Test Kit.
(§2) The procedure of Example 1 was repeated with octade-cylamine and N,N-dimethyl-n-octadecylamine at a dosage of 8 mg./kg/ day.

serum cholesterol [1] = assay: Serum cholesterol (modified Liebermann-Burchard reaction) in mice; assay type: in vivo, male CF1 mice; conditions: for response vs control in vivo at 20 mg/kg: Mus musculus, 20 mg./kg./day intraparenterally, male CF1 mice; for Serum cholesterol, % of Control, Day 9 / Serum cholesterol, % of Control, Day 16: 8 mg./kg/day, procedure of Example 1
Procedure: as §1, §2

serum cholesterol [2] = assay: as above; assay type: in vivo; conditions: Mus musculus, clofibrate at its therapeutic dose of 150 mg., male CF1 mice
[3] = test system: ATP dependent citrate lyase; conditions: in vivo; cited from earlier work
cholesterol excretion = conditions: mouse, in vivo; cited from earlier work
[4] = 2.5 mg/kg in mice; cited from earlier work
acetyl CoA synthetase = conditions: in vivo; cited from earlier work
[5] = test system: phosphatidate phosphohydrolase; conditions: in vivo; cited from earlier work
[6] = 216 h, Day 9, read-out: Serum Cholesterol, % of Control, Day 9
[7] = 384 h, Day 16, read-out: Serum Cholesterol, % of Control, Day 16

Compound: CCCCCCCCCCN [decylamine]
- response vs control in vivo at 20 mg/kg (serum triglyceride; male CF1 mice): 59 ± 6%
- response vs control in vivo at 20 mg/kg (serum cholesterol [1]; [6]): 48 ± 4%
- response vs control in vivo at 20 mg/kg (serum cholesterol [1]; [7]): 38 ± 5%

Compound: CCOC(=O)C(C)(C)Oc1ccc(Cl)cc1 [clofibrate]
- response vs control in vivo at 150 mg (serum triglyceride; clofibrate at its therapeutic dose of 150 mg., male CF1 mice): 75 ± 5%
- response vs control in vivo at 150 mg (serum cholesterol [2]; [6]): 88 ± 7%
- response vs control in vivo at 150 mg (serum cholesterol [2]; [7]): 87 ± 5%

Compound: CCCCCCCCCCCCN [dodecylamine]
- response vs control in vivo at 20 mg/kg (serum triglyceride; male CF1 mice): 64 ± 4%
- response vs control in vivo at 20 mg/kg (serum cholesterol [1]; [6]): 63 ± 6%
- response vs control in vivo at 20 mg/kg (serum cholesterol [1]; [7]): 61 ± 5%

Compound: tetrakis-u-(trimethylamine-borane carboxyato) bis(trimethylaminecarboxyborane)-dicopper (II)
- ATP dependent citrate lyase [3]: lower
- cholesterol excretion from the body (cholesterol excretion): accelerate cholesterol excretion from the body
- hypolipidemic activity [4]: potent hypolipidemic agent
- acetyl CoA synthetase (acetyl CoA synthetase): lower
- phosphatidate phosphohydrolase [5]: lower

Compound: CCCCCCCCCCCN [undecylamine]
- response vs control in vivo at 20 mg/kg (serum triglyceride; male CF1 mice): 66 ± 5%
- response vs control in vivo at 20 mg/kg (serum cholesterol [1]; [6]): 61 ± 5%
- response vs control in vivo at 20 mg/kg (serum cholesterol [1]; [7]): 57 ± 6%

Compound: CCCCCCCCCCCCCCCCCCNC [N-methyloctadecylamine]
- response vs control in vivo at 20 mg/kg (serum triglyceride; male CF1 mice): 64 ± 6%
- response vs control in vivo at 20 mg/kg (serum cholesterol [1]; [6]): 51 ± 5%
- response vs control in vivo at 20 mg/kg (serum cholesterol [1]; [7]): 44 ± 4%

Compound: CCCCCCCCCCCCCCCCCCN(C)C [N,N-dimethyl-n-octadecylamine]
- response vs control in vivo at 8 mg/kg (serum triglyceride): 84 ± 6%
- response vs control in vivo at 20 mg/kg (serum triglyceride; male CF1 mice): 56 ± 3%
- Serum cholesterol, % of Control, Day 9 (serum cholesterol [1]; Day 9): 91 ± 5 % of Control
- Serum cholesterol, % of Control, Day 16 (serum cholesterol [1]; Day 16): 79 ± 5 % of Control
- response vs control in vivo at 20 mg/kg (serum cholesterol [1]; [6]): 76 ± 6%
- response vs control in vivo at 20 mg/kg (serum cholesterol [1]; [7]): 61 ± 5%

Compound: CCCCCCCCCCCCCCN [1-tetradecylamine]
- response vs control in vivo at 20 mg/kg (serum triglyceride; male CF1 mice): 54 ± 6%
- response vs control in vivo at 20 mg/kg (serum cholesterol [1]; [6]): 50 ± 4%
- response vs control in vivo at 20 mg/kg (serum cholesterol [1]; [7]): 34 ± 3%

Compound: CCCCCCCCCCCCCN [tridecylamine]
- response vs control in vivo at 20 mg/kg (serum triglyceride; male CF1 mice): 73 ± 7%
- response vs control in vivo at 20 mg/kg (serum cholesterol [1]; [6]): 69 ± 5%
- response vs control in vivo at 20 mg/kg (serum cholesterol [1]; [7]): 67 ± 5%

Compound: CCCCCCCCCCCCCCCCCCN [octadecylamine]
- response vs control in vivo at 8 mg/kg (serum triglyceride): 60 ± 5%
- response vs control in vivo at 20 mg/kg (serum triglyceride; male CF1 mice): 56 ± 4%
- Serum cholesterol, % of Control, Day 9 (serum cholesterol [1]; Day 9): 63 ± 3 % of Control
- Serum cholesterol, % of Control, Day 16 (serum cholesterol [1]; Day 16): 57 ± 4 % of Control
- response vs control in vivo at 20 mg/kg (serum cholesterol [1]; [6]): 72 ± 5%
- response vs control in vivo at 20 mg/kg (serum cholesterol [1]; [7]): 64 ± 4%

Compound: CCCCCCCCCCCCCCCCN [1-hexadecylamine]
- response vs control in vivo at 20 mg/kg (serum triglyceride; male CF1 mice): 63 ± 6%
- response vs control in vivo at 20 mg/kg (serum cholesterol [1]; [6]): 39 ± 5%
- response vs control in vivo at 20 mg/kg (serum cholesterol [1]; [7]): 35 ± 4%
